Measurements published in patent US8283373B2, “Inhibitors of cytosolic phospholipase A2” (Pfizer Inc., priority 2005, dated 2012).

How the values were obtained:
[1] = test system: Human platelet aggregation; assay: Platelet Function Analyzer (PFA-100) study; type: cell-based; conditions: whole human blood, Collagen/Epinephrine cartridges, 1.25 μg/ml
Procedure: Human platelet aggregation was studied using the platelet function analyzer (PFA-100®). Human blood was collected from volunteers who had denied taking any platelet inhibitory medications over the previous two weeks. Blood was collected in 3.2% sodium citrate Vacutainer tubes (Becton Dickinson). Tubes were inverted 5 times and the blood was transferred to 15 ml polypropylene conical tubes. […] Tubes were inverted 10 times to mix, and allowed to sit at room temperature for 10 minutes prior to run in PFA-100. The manufacturers protocol was followed for the PFA-100 using Collagen/Epinephrine cartridges (0.5% DMSO alone in whole blood gave closure times of 125+/−13.9 seconds). Maximum closure time is 300 seconds, as set by the manufacturer.
All compounds were efficacious in the platelet function assay.

[2] = test system: serum thromboxane B2; assay: Thromboxane B2 levels in the ApoE KO mouse model; type: in vivo; conditions: ApoE KO mice, 3.3 mg/g chow for two days; vehicle 76.1±17.3
Procedure: Blood was collected through the retro-orbital siunus and left to coagulate at 37° C. for one hour. Serum was then isolated and assayed for thromboxane B2 by ELISA.
In a separate experiment, ApoE KO mice were dosed with vehicle or the compound of Example 25 at 10 mg/kg by oral gavage. Blood was collected through the retro-orbital siunus and left to coagulate at 37° C. for one hour. Serum was then isolated and assayed for thromboxane B2 by ELISA.

[3] = test system: primary dopaminergic neurons; assay: MPP+ exposure in dopaminergic neurons; type: cell-based, rat; conditions: 10 μM MPP+ 60 minutes, control 100, MPP+ alone 56.6
Procedure: Primary dopaminergic neurons were isolated from E15 rat embryos as described in Pong K., et al., (1997) J. Neurochem. 69 986-994. Briefly, the ventral mesencephalon was isolated and tissue was pooled in ice-cold phosphate buffer saline (PBS) without Ca^2+ and Mg^2+. The tissue was transferred to an enzymatic dissociation media containing 20 IU/ml papain in Earle's balanced salt solution (Worthington Biochemical, Freehold, N.J.) and incubated for 30 minutes at 37° C. After enzymatic dissociation, the papain solution was aspirated and the tissue mechanically triturated with a fire-polished Pasteur pipette in complete media [Neurobasal Medium with B-27 supplement (Gibco, Grand Island, N.Y.), penicillin/streptomycin, aphidicolin, glutamate] containing 2,000 IU/ml DNase and 10 mg/ml ovomucoid protease inhibitor. Single-cell suspensions in complete media were plated on pre-coated poly-L-ornithine/laminin 24-well plates (Becton-Dickinson, Bedford, Mass.) at a density of 5.0×10^5 cells/well. Cells were maintained for one week prior to experimentation.
Cultures were exposed to 10 μM MPP^+ for 60 minutes. After the exposure, fresh media was exchanged and fresh compound was added. Dopaminergic neuron viability was determined 24 hours later by measuring ^3H-dopamine uptake as described in Pong et al., 1997, supra.

[4] = test system: atherosclerosis in ApoE KO mice; assay: ApoE KO mouse model of atherosclerosis (20 weeks); type: in vivo; conditions: for decrease of atherosclerotic plaque burden at the aortic sinus vs control / atherosclerotic plaque burden at the aortic sinus: 20 weeks; for atherosclerotic plaque burden at the aortic sinus: control 519220±100694; for Atherosclerotic Lesions Along the Aorta (percent lesion area), % Decrease vs Control: ns = not significant
Procedure: The apolipoprotein E (ApoE) knockout mouse was created by gene targeting in embryonic stem cells to disrupt the ApoE gene. ApoE is a glycoprotein that is responsible for the uptake of chylomicrons and VLDL particles by the liver, thereby preventing the accumulation of cholesterol rich remnants in the blood stream.
Six week old male ApoE KO mice were treated with 4-{3-[1-benzhydryl-5-chloro-2-(2-{[(3,4-dichlorobenzyl)sulfonyl]amino}ethyl)-1H-indol-3-yl]propyl}benzoic acid (Compound C).

[5] = Drug exposure in ApoE KO mice fed supplemented chow; type: in vivo, mouse; conditions: chow supplemented at 3.3 mg/g
[6] = test system: Ascaris suum antigen-induced bronchoconstriction and AHR; conditions: literature (Abraham et al. 1992; Jones et al. 1995); cited from earlier work

With O=C(O)c1ccc(CCCc2c(CCNS(=O)(=O)Cc3ccc(Cl)c(Cl)c3)n(C(c3ccccc3)c3ccccc3)c3ccc(Cl)cc23)cc1 [Compound C, 4-{3-[1-benzhydryl-5-chloro-2-(2-{[(3,4-dichlorobenzyl)sulfonyl]amino}ethyl)-1H-indol-3-yl]propyl}benzoic acid] as the molecule, how does the PFA-100 closure time [1] read?
The PFA-100 closure time was “increased closure time”.

What about the “serum Thromboxane concentration” value [2] of the same molecule?
The value was 33.5 ± 11.6 ng/mL.

What about the “dopaminergic neuron viability (3H-dopamine uptake), Avg.” value (shortened to “dopaminergic neuron viability”) ([3]; 0.3 μM) of the same molecule?
The value was 68.6.

And the “dopaminergic neuron viability” value ([3]; 1 μM)?
Its value is 70.6.

And the “dopaminergic neuron viability” value ([3]; 3 μM)?
The value was 75.9.

And the “dopaminergic neuron viability” value ([3]; 10 μM)?
The value was 79.6.

And the “Serum thromboxane B2 levels compared to control animals” value ([4]; 1.3 mg/g and 3.3 mg/g chow, after 9 and 20 weeks of treatment)?
Its value is “significantly decreased”.

And the “percent of total animals with Stage 3 (advanced fibrous plaque)” value ([4]; 1.3 mg/g chow)?
Its value is 33%.

What about the “percent of total animals with Stage 4 (stable complicated lesion)” value ([4]; 1.3 mg/g chow) of the same molecule?
The value was 56%.

And the “percent of total animals with Stage 5 (unstable complicated lesion)” value ([4]; 1.3 mg/g chow)?
Its value is 11%.

What about the “decrease of atherosclerotic plaque burden at the aortic sinus vs control” value ([4]; 1.3 mg/g chow, p<0.05) of the same molecule?
The value was 32.7%.

What about the “atherosclerotic plaque burden at the aortic sinus” value ([4]; 1.3 mg/g chow) of the same molecule?
Its value is 349582±132685 μm^2.

And the “Serum Thromboxane B2 Levels, % Decrease vs Control” value ([4]; 1.3 mg/g chow, after 9 weeks of treatment)?
The value was 52.5%.

And the “Serum Thromboxane B2 Levels, % Decrease vs Control” value ([4]; 1.3 mg/g chow, after 20 weeks of treatment)?
The value was 36.6%.

What about the “Atherosclerotic Lesions Along the Aorta (percent lesion area), % Decrease vs Control” value ([4]; 1.3 mg/g chow) of the same molecule?
Its value is 32.4 ns %.

What about the “percent of total animals with Stage 1 (fibrofatty lesion)” value ([4]; 3.3 mg/g chow) of the same molecule?
The value was 9%.

What about the “percent of total animals with Stage 2 (early fibrous plaque)” value ([4]; 3.3 mg/g chow) of the same molecule?
Its value is 18%.

What about the “percent of total animals with Stage 3 (advanced fibrous plaque)” value ([4]; 3.3 mg/g chow) of the same molecule?
The value was 37%.

And the “percent of total animals with Stage 4 (stable complicated lesion)” value ([4]; 3.3 mg/g chow)?
The value was 27%.

What about the “percent of total animals with Stage 5 (unstable complicated lesion)” value ([4]; 3.3 mg/g chow) of the same molecule?
The value was 9%.

And the “decrease of atherosclerotic plaque burden at the aortic sinus vs control” value ([4]; 3.3 mg/g chow, p<0.001)?
Its value is 45.6%.

What about the “atherosclerotic plaque burden at the aortic sinus” value ([4]; 3.3 mg/g chow) of the same molecule?
Its value is 282697±146462 μm^2.

What about the “Serum Thromboxane B2 Levels, % Decrease vs Control” value ([4]; 3.3 mg/g chow, after 9 weeks of treatment) of the same molecule?
The value was 61.2%.

And the “Serum Thromboxane B2 Levels, % Decrease vs Control” value ([4]; 3.3 mg/g chow, after 20 weeks of treatment)?
The value was 49.5%.

And the “Atherosclerotic Lesions Along the Aorta (percent lesion area), % Decrease vs Control” value ([4]; 3.3 mg/g chow)?
Its value is 35.2 ns %.

What about the “atherosclerotic lesion complexity at the aortic sinus vs control” value ([4]; 1.3 and 3.3 mg/g chow) of the same molecule?
The value was “reduced”.

What about the maximum drug exposure [5] of the same molecule?
The maximum drug exposure was roughly 500 ng/mL.

For CC(c1cc2ccccc2s1)N(O)C(N)=O (stereo not shown) [zileuton], which “effect on antigen-induced airway responses in the sheep model” value [6] is on record?
Its value is “blocks antigen-induced late airway responses, inflammation, and AHR”.
